Test results as given in patent US11661404B2, “Prodrug compounds activated by AKR1C3 and their use for treating hyperproliferative disorders” (priority 2018, dated 2023).
Read-outs that look alike come from different tables or passages of the source.

Tests used:
[1] = system: wild-type SNU398 hepatocellular carcinoma cells; experiment: Anti-proliferative IC50 assay, wild-type SNU398; format: cell-based; details: Homo sapiens
Description: (§1) Four hundred cells were seeded in a volume of 100 μL in each well of a 96-well plate. The cells were left in a humidified incubator (37° C., 5% CO2) for 2 hours in order to enable attachment to the surface of the wells prior to compound addition. All compounds were prepared as stocks in DMSO and stored at −80° C. Frozen stocks of compounds were thawed immediately prior to addition to cells. Working solutions of each compound were made in α-MEM+5% FBS (v/v) at 3 times the required final concentration for the top well. The final concentration of DMSO in the α-MEM solution was ensured to not exceed 1% of the total volume. 50 μL of the working solution was added to the top wells (in duplicates) and gently mixed. The solubility of some compounds precluded the working solution in α-MEM to be 3 times the desired top well concentration. […] A 3-fold serial dilution was carried out along the plate starting from the top well. The first column of wells on the plate served as blanks (containing α-MEM+FBS) and the second column served as control wells (containing cells with no compound added). Following compound addition, the plates were incubated for 4 hours in a humidified incubator (37° C., 5% CO2).
(§2) Following the 4 hour compound exposure, the 96-well plates were washed three times by aspirating media with an Immuno Washer (Nunc) and each well replaced with 150 μL of α-MEM+5% (v/v) FBS+1% (v/v) P/S. The plates were left in a humidified incubator (37° C., 5% CO2) for 5 days to enable cell growth. The cells in 96-well plates were fixed 5 days after compound exposure by adding 50 μL of a 40% (w/v) trichloroacetic acid (TCA) solution so as to obtain a final TCA concentration of 10% in each well. The plates were left in the refrigerator (4° C.) for 1 hour and subsequently rinsed 3 times in tap water. Any excess water was left to drain and the cells were stained with 50 μL of 0.4% (w/v) sulforhodamine B (SRB). The plates with the SRB stain were left in the dark for 30 minutes. Excess stain was removed from the wells by rinsing the plates 4 times in water containing 1% (v/v) acetic acid. The stain was solubilised by adding 100 μL of 10 mM unbuffered Tris (pH 10.5) to each well and the plates were left in a shaker in a dark environment at room temperature for at least 1 hour. The absorbance values of the wells were determined by an ELx 808 Absorbance Microplate Reader (Bio-Tek Instruments, Winooski, Vt., USA), with the wavelength of the measurement filter set at 490 nm and a reference filter set at 450 nm. The absorbance of the reference filter was subtracted from the measurement filter to obtain a final absorbance of λ490-450 nm. The absorbance data was analysed and IC50 values determined by the KC4 microplate data analysis software (KC4™ V3.4, Bio-Tek).
(§3) Anti-proliferative IC50 assays were repeated as described above including the addition of 3 μM SN34037, a selective and potent small molecule inhibitor of AKR1C3.
(§4) Materials and methods used are as described for Example 9. […] This is a surprising finding and considerably greater than the approximately 77-fold, 270-fold and 400-fold increase in sensitivity observed for PR-104A, SN33540 and SN34454, respectively. In all cases, this increase in cytotoxicity resulting from expression of AKR1C3 can be substantially reversed by addition of an AKR1C3 inhibitor (SN34037), directly implicating metabolism of the prodrugs by AKR1C3 in the observed increase in cytotoxicity. As an important control, introduction of SN34037 had no anti-proliferative effects in wild-type SNU398 cells treated with compounds of the invention.

[2] = system: SNU398 hepatocellular carcinoma cells engineered to over-express AKR1C3; experiment: Anti-proliferative IC50 assay, SNU398 over-expressing AKR1C3; format: cell-based, human; details: for IC50: Homo sapiens
Description: as §1, §2, §3, §4

[3] = system: wild-type HCT116 colon cancer cells; experiment: Anti-proliferative IC50 assay (SRB), wild-type HCT116; format: cell-based, human
Description: (§5) The cellular cytotoxicity of compounds of the invention resulting from AKR1C3-dependent metabolism of the compounds can readily be observed in anti-proliferative IC50 testing in isogenic cell lines that have been engineered to over-express human AKR1C3, relative to their wild-type counterparts that have been selected for their comparatively low levels of endogenous AKR1C3 expression (by Western blot analysis). The direct role of AKR1C3 in metabolism and cytotoxicity of the compounds is further supported for selected examples by repeat anti-proliferative experiments in the presence of a potent and selective small molecule inhibitor of AKR1C3, SN34037 (Flanagan et al., Bioorganic & Medicinal Chemistry (2014), 22(3), 967-977).
as §1, §2, §3

[4] = system: HCT116 colon cancer cells engineered to over-express AKR1C3; experiment: Anti-proliferative IC50 assay (SRB), HCT116 over-expressing AKR1C3; format: cell-based, human; details: for IC50 Ratio WT:AKR1C3: HCT116-WT vs HCT116-AKR1C3
Description: as §5, §1, §2, §3

[5] = system: wild-type HCT116 colon cancer cells; experiment: Anti-proliferative IC50 under oxic and anoxic conditions; format: cell-based, human; details: for IC50: Homo sapiens, HCT-116; for Hypoxic Cytotoxicity Ratio (HCR): oxic vs anoxic IC50, HCT116-WT
Description: PR-104A was initially designed and optimised as a hypoxia-selective cytotoxin (Patterson et al, Clinical Cancer Research, 2007, 13, 3922-3932). In the context of an AKR1C3-activated prodrug, this route of activation is considered off-mechanism and may potentially be undesirable, leading to off-target toxicities in a subject. Preferred compounds of the invention have been determined to be substantially resistant to hypoxia-dependent activation and cytotoxicity in wild-type HCT116 colon cancer cells. HCT116 cells were treated with compounds of the invention under either oxic or anoxic conditions and then their degree of anti-proliferative activity determined.
Selected compounds were evaluated for cytotoxic potential (IC50) under anoxic conditions. The same procedures as described above for Examples 9-11 were carried out in a Bactron anoxic chamber (Sheldon Manufacturing Inc) with internal 37° C. incubators where palladium catalyst scrubbed gas (90% N2, 5% H2, 5% CO2) ensured severe anoxia (<0.001% O2) in the whole chamber. All materials required (including cells) were taken into the chamber through two cycles of vacuum and gassing with 100% N2, followed by a single cycle with 5% CO2 and 5% hydrogen in nitrogen. All experimental materials were placed in the anoxic chamber at least 3 days prior to the day required for the experiment in order to remove any traces of residual O2. The medium used for the 96-well plates in the anoxic chamber consisted of α-MEM+10% (v/v) FBS+1% (v/v) additives (1 M β-D-Glucose and 20 mM 2′-Deoxycytidine).

[6] = SNU-398, read-out: SNU398-WT +AKR1C3 Inhibitor Anti-proliferative IC50
[7] = SNU-398, read-out: SNU398-WT Anti-proliferative IC50
[8] = SNU-398, read-out: SNU398-AKR1C3 +AKR1C3 Inhibitor Anti-proliferative IC50
[9] = SNU-398, read-out: SNU398-AKR1C3 Anti-proliferative IC50
[10] = Homo sapiens, HCT-116, read-out: HCT116-WT IC50
[11] = read-out: HCT116-WT + AKR1C3 Inhibitor IC50, with 3 μM SN34037
[12] = Homo sapiens, HCT-116, read-out: HCT116-AKR1C3 IC50
[13] = read-out: HCT116-AKR1C3 + AKR1C3 Inhibitor IC50, with 3 μM SN34037
[14] = anoxic (<0.001% O2), read-out: HCT116-WT Anti-proliferative IC50 Anoxic
[15] = read-out: HCT116-WT Anti-proliferative IC50 Oxic

Row | Compound | IC50 [1, 6] | IC50 [1, 7] | IC50 [2, 8] | IC50 [2, 9] | increase in sensitivity when SNU398 cells express AKR1C3 ([2]; SNU398-WT vs SNU398-AKR1C3) | IC50 [3, 10] | IC50 [3, 11] | IC50 Ratio WT:AKR1C3 [4] | IC50 [4, 12] | IC50 [4, 13] | IC50 [5, 14] | IC50 [5, 15] | Hypoxic Cytotoxicity Ratio (HCR) [5]
1 | CN1CCN(C(=O)c2cc([N+](=O)[O-])ccc2N(CCBr)CCOS(C)(=O)=O)CC1 [SN34454, reference compound] | 48.9 µM | 60.5 µM | 62.7 µM | 0.15 µM | ~400 fold |  |  |  |  |  |  |  | 
2 | O=[N+]([O-])c1ccc(N(CCBr)CCBr)c(S(=O)(=O)N2CCN(CC(O)CO)CC2)c1 (stereo not drawn) [Compound 566, 3-(4-((2-(bis(2-bromoethyl)amino)-5-nitrophenyl)sulfonyl)piperazin-1-yl)propane-1,2-diol] | 10.2 µM | 9.64 µM | 6.41 µM | 0.011 µM |  | 3.34 µM | 3.93 µM | 3340 | 0.001 µM | 1.72 µM |  |  | 
3 | CS(=O)(=O)OCCN(CCBr)c1c(C(=O)NCCO)cc([N+](=O)[O-])cc1[N+](=O)[O-] [PR-104A, 2-((2-bromoethyl)(2-((2-hydroxyethyl)-carbamoyl)-4,6-dinitrophenyl)amino)ethyl methanesulfonate, reference compound] | 92.4 µM | 89.8 µM | 89.9 µM | 1.16 µM |  | 55.8 µM | 70.7 µM | 50 | 1.12 µM | 41.8 µM | 2.83 µM | 55.8 µM | 20
4 | CN1CCN(S(=O)(=O)c2cc([N+](=O)[O-])ccc2N(CCBr)CCOS(C)(=O)=O)CC1 [Compound 602, 2-((2-bromoethyl)(2-((4-methylpiperazin-1-yl)sulfonyl)-4-nitrophenyl)amino)ethyl methanesulfonate] | 6.65 µM | 6.74 µM | 2.66 µM | 0.003 µM |  | 4.26 µM | 4.33 µM | 4260 | 0.001 µM | 1.78 µM | 3.51 µM | 4.26 µM | 
5 | CN1CCN(C(=O)c2cc([N+](=O)[O-])ccc2N(CCBr)CCBr)CC1 [SN34118, reference compound] |  |  |  |  |  | 38.2 µM | 29.3 µM | 98 | 0.389 µM | 23.9 µM |  |  | 
6 | CS(=O)(=O)OCCN(CCBr)c1ccc([N+](=O)[O-])cc1S(=O)(=O)N1CCN(CC(O)CO)CC1 (stereo not drawn) [Compound 605, 2-((2-bromoethyl)(2-((4-(2,3-dihydroxypropyl)piperazin-1-yl)sulfonyl)-4-nitrophenyl)amino)ethyl methanesulfonate] | 14.4 µM | 16.2 µM | 10.5 µM | 0.028 µM |  | 6.18 µM | 6.9 µM | 687 | 0.009 µM | 3.54 µM |  |  | 
7 | CN1CCN(S(=O)(=O)c2cc([N+](=O)[O-])ccc2N(CCOS(C)(=O)=O)CCOS(C)(=O)=O)CC1 [Compound 641, ((2-((4-methylpiperazin-1-yl)sulfonyl)-4-nitrophenyl)azanediyl)bis(ethane-2,1-diyl) dimethanesulfonate] | 15.4 µM | 10.3 µM | 5.07 µM | 0.004 µM |  | 5.91 µM | 6.4 µM | 2955 | 0.002 µM | 3.11 µM | 2.52 µM | 5.91 µM | 2
